In ChEMBL document CHEMBL1141241, “3,6-disubstituted coumarins as mechanism-based inhibitors of thrombin and factor Xa” (J Med Chem, 2005):

Tests used:
[1] = target: Coagulation factor X (Homo sapiens) (UniProt P00742); test: Inhibitory activity against human FXa at 5 uM; values are per cent of control
[2] = target: Prothrombin (Homo sapiens) (UniProt P00734); conditions: at 2 µM
Description: Inhibitory activity against human thrombin at 2 uM

[3] = Selectivity ratio for human thrombin over bovine trypsin

Chain of Coagulation factor X (Homo sapiens) (P00742 41-179 limits assumed): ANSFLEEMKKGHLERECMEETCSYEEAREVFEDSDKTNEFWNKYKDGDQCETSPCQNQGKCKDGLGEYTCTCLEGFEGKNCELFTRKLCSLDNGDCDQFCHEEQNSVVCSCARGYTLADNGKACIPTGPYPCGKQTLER
Chain of Coagulation factor X (Homo sapiens) (P00742 235-488 limits assumed): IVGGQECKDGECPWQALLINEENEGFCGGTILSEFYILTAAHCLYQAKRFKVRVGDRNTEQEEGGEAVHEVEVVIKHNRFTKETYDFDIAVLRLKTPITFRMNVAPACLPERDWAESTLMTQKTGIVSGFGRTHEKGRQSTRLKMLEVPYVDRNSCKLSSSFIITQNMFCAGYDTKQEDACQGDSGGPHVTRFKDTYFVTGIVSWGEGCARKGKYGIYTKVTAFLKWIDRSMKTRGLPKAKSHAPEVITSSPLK

O=C(Oc1cc(Cl)ccc1Cl)c1cc2cc(CCl)ccc2oc1=O
residual activity [1]: 39%

O=C(Oc1cccc2ccccc12)c1cc2cc(CCl)ccc2oc1=O
residual activity [2]: 115%
residual activity [1]: 109%

O=C(Oc1ccccc1Cl)c1cc2cc(CCl)ccc2oc1=O
residual activity [2]: 78%
residual activity [1]: 134%

O=C(Oc1cccnc1)c1cc2cc(CCl)ccc2oc1=O
residual activity [2]: 113%
residual activity [1]: 114%

O=C(Oc1cccc([N+](=O)[O-])c1)c1cc2cc(CCl)ccc2oc1=O
residual activity [2]: 80%
residual activity [1]: 124%

O=C(Nc1cccc(Cl)c1)c1cc2cc(CCl)ccc2oc1=O
residual activity [2]: 97%
residual activity [1]: 89%

O=C(Oc1c(Cl)cccc1Cl)c1cc2cc(CCl)ccc2oc1=O
residual activity [2]: 101%
residual activity [1]: 109%

O=C(Cc1cccc(Cl)c1)c1cc2cc(CCl)ccc2oc1=O
residual activity [2]: 77%
residual activity [1]: 77%

O=C(Oc1cccc(Cl)c1)c1cc2ccccc2oc1=O
residual activity [2]: 107%
residual activity [1]: 77%

CC(=O)OCc1ccc2oc(=O)c(C(=O)Oc3cccc(Cl)c3)cc2c1
residual activity [2]: 91%
residual activity [1]: 82%

O=C(Oc1cccc(Cl)c1)c1cc2cc(CCl)ccc2oc1=O
residual activity [2]: 10%
Ratio [3]: 25
residual activity [1]: 29%

O=C(Oc1ccc(I)cc1)c1cc2cc(CCl)ccc2oc1=O
residual activity [2]: 99%
residual activity [1]: 80%

O=C(Oc1cccc(Br)c1)c1cc2cc(CCl)ccc2oc1=O
residual activity [2]: 8%
Ratio [3]: 55
residual activity [1]: 33%

O=C(c1cccc(Cl)c1)c1cc2cc(CCl)ccc2oc1=O
residual activity [2]: 100%
residual activity [1]: 83%

O=C(Oc1ccccc1)c1cc2cc(CCl)ccc2oc1=O
residual activity [2]: 60%
residual activity [1]: 59%

Cc1ccc(OC(=O)c2cc3cc(CCl)ccc3oc2=O)cc1
residual activity [2]: 111%
residual activity [1]: 72%

O=C(Oc1cccc(F)c1)c1cc2cc(CCl)ccc2oc1=O
residual activity [2]: 24%
residual activity [1]: 61%

O=C(Oc1cccc(I)c1)c1cc2cc(CCl)ccc2oc1=O
residual activity [2]: 27%
residual activity [1]: 73%

O=C(Oc1ccccn1)c1cc2cc(CCl)ccc2oc1=O
residual activity [2]: 100%
residual activity [1]: 89%

COc1cc(Cl)cc(OC(=O)c2cc3cc(CCl)ccc3oc2=O)c1
residual activity [2]: 103%
residual activity [1]: 126%

Cc1ccccc1OC(=O)c1cc2cc(CCl)ccc2oc1=O
residual activity [2]: 79%
residual activity [1]: 103%

O=C(Oc1cccc(C(F)(F)F)c1)c1cc2cc(CCl)ccc2oc1=O
residual activity [2]: 66%
residual activity [1]: 134%

O=C(Oc1cccc2cccnc12)c1cc2cc(CCl)ccc2oc1=O
residual activity [2]: 107%
residual activity [1]: 114%

O=C(OCc1ccccc1)c1cc2cc(CCl)ccc2oc1=O
residual activity [2]: 95%
residual activity [1]: 110%

O=C(Sc1cccc(Cl)c1)c1cc2cc(CCl)ccc2oc1=O
residual activity [2]: 107%
residual activity [1]: 60%

Cc1ccc2oc(=O)c(C(=O)Oc3cccc(Cl)c3)cc2c1
residual activity [2]: 70%
residual activity [1]: 61%

O=C(Oc1ccc(Cl)cc1)c1cc2cc(CCl)ccc2oc1=O
residual activity [2]: 107%
residual activity [1]: 102%

O=C(Oc1ccc2ncccc2c1)c1cc2cc(CCl)ccc2oc1=O
residual activity [2]: 98%
residual activity [1]: 125%

COc1cccc(OC(=O)c2cc3cc(CCl)ccc3oc2=O)c1
residual activity [2]: 66%
residual activity [1]: 108%

Cc1cccc(OC(=O)c2cc3cc(CCl)ccc3oc2=O)c1
residual activity [2]: 35%
residual activity [1]: 78%

O=C(Oc1cccc(Cl)c1Cl)c1cc2cc(CCl)ccc2oc1=O
residual activity [2]: 100%
residual activity [1]: 125%

O=C(Oc1ccccc1I)c1cc2cc(CCl)ccc2oc1=O
residual activity [2]: 59%
residual activity [1]: 92%

O=C(Oc1cc(Cl)cc(Cl)c1)c1cc2cc(CCl)ccc2oc1=O
residual activity [2]: 102%
residual activity [1]: 73%

O=C(Oc1ccc2ccccc2c1)c1cc2cc(CCl)ccc2oc1=O
residual activity [2]: 109%
residual activity [1]: 113%
